Measurements taken from patent US20120282331A1, “MAMMALIAN METABOLITES OF STEROIDS” (TOKAI PHARMACEUTICALS, INC., priority 2009, published 2012).

Experiments:
[1] = Metabolic stability in pooled rat liver microsomes; format: in vitro ADME
Procedure: (§1) The depletion of the parent compound and the formation of metabolites in a time-dependent manner were explored in the presence or absence of an NADPH-generating system.
(§2) 3β-Hydroxy-17(1H-benzimidazol-1-yl)androsta-5,16-diene is incubated with pooled rat, dog, monkey and human liver microsomes at a protein concentration of 0.6 mg/mL. Incubation mixture contains either 0.1 M potassium phosphate buffer pH 7.4 or the incubation buffer. Following two minutes of pre-incubation of the incubation mixture at ˜37° C., the reaction is started by the addition of an NADPH-generating system (NADPH-GS) (1 mM NADP+, 5 mM glucose-6-phosphate, 1.0 unit/mL glucose-6-phosphate dehydrogenase) or 0.1 M phosphate buffer. At the appropriate time points (0, 15, 30, 60 and 120 minutes), reactions are stopped by the addition of appropriate stop solutions (0.1% formic acid in acetonitrile). The samples are centrifuged at approximately 10 000×g for 10 minutes at 20° C. An amount of supernatant from each sample is transferred to pre-labeled HPLC vials for analysis. Samples are analyzed by LC/MS to monitor the remaining parent compound or formation of potential metabolites. On each occasion, blank sample containing TOK-001 but without microsomes, is included.

[2] = Metabolic stability in pooled monkey liver microsomes; format: in vitro ADME; conditions: EDTA and MgCl2; for depletion (negative = increase in concentration): absence of NADPH-GS
Procedure: as §1, §2

[3] = Metabolic stability in pooled dog liver microsomes; format: in vitro ADME
Procedure: as §1, §2

[4] = Metabolic stability in pooled human liver microsomes; format: in vitro ADME
Procedure: as §1, §2

[5] = Solubility in incubation medium; format: physicochemical; conditions: presence versus absence of MgCl2/EDTA
Text: However, the role of the divalent cation, MgCl2 in the activation of the CYP 450 activity is not well defined (Saito et al., 2006, Tamura et al., 1988).

[6] = 10 μM, EDTA and MgCl2, up to 60 minutes
[7] = 10 μM, EDTA and MgCl2, without NADPH-GS, 120 minutes
[8] = EDTA and MgCl2, up to 120 minutes

## C[C@]12CC[C@H](O)CC1=CC[C@@H]1[C@@H]2CC[C@]2(C)C(n3cnc4ccccc43)=CC[C@@H]12 [Compound (1), 3β-Hydroxy-17(1H-benzimidazol-1-yl)androsta-5,16-diene]
[1]; [6]
  metabolic stability: metabolically stable
[1]; 10 μM, EDTA and MgCl2, with NADPH-GS, 120 minutes
  depletion of parent compound: ~21%
[1]; [7]
  change of parent compound in negative control: slight increase
[1]; [8]
  metabolic stability: metabolically stable
[1]; both sexes, rat, pooled rat liver microsomes, pH 7.4, 10 μM, 0.1 M phosphate buffer only, with NADPH-generating system, 120 minutes, read-out: recovery compared to the 0 minute incubation
  recovery at 120 min, 10 μM: ~86%
[1]; both sexes, rat, pooled rat liver microsomes, 10 μM, phosphate buffer, 1 mM EDTA, 3 mM MgCl2, with NADPH-generating system, 60 minutes, read-out: recovery compared to the 0 minute incubation
  recovery at 60 min, 10 μM: ~85%
[1]; both sexes, rat, pooled rat liver microsomes, 10 μM, phosphate buffer, 1 mM EDTA, 3 mM MgCl2, with NADPH-generating system, 120 minutes, read-out: recovery compared to the 0 minute
  recovery at 120 min, 10 μM: ~79%
[2]; 10 μM, 30 minutes
  depletion (negative = increase in concentration): ~−14%
[2]; 10 μM, 120 minutes
  depletion (negative = increase in concentration): ~−12%
[2]; 10 μM, with NADPH-GS, 30 minutes
  depletion of parent compound: ~16%
[2]; up to 120 minutes
  metabolic stability: less stable
[3]; 10 μM, 0.1 M phosphate buffer only, with NADPH-generating system, 120 minutes
  depletion compared to the 0 minute incubation: ~25%
[3]; 10 μM, 0.1 M phosphate buffer only, with NADPH-generating system, up to 60 minutes
  metabolic stability: metabolically stable
[3]; [6]
  metabolic stability: metabolically stable
[3]; [7]
  decrease of parent compound in negative control: ~21%
[3]; [8]
  metabolic stability: metabolically stable
[3]; both sexes, dog, pooled dog liver microsomes, 10 μM, phosphate buffer, 1 mM EDTA, 3 mM MgCl2, with NADPH-generating system, 60 minutes, read-out: recovery compared to the 0 minute
  recovery at 60 min, 10 μM: ~85%
[4]; 10 μM, EDTA and MgCl2, absence of NADPH-GS
  depletion of parent compound: ~7%
[4]; 10 μM, EDTA and MgCl2, with NADPH-generating system, over 120 minutes
  depletion of parent compound: ≤ 11%
[4]; 0.1 M phosphate buffer only, NADPH and time-dependent
  metabolized (depletion): ≥ 50%
[4]; [8]
  metabolic stability: metabolically stable
[4]; both sexes, human, pooled human liver microsomes, 10 μM, phosphate buffer, 1 mM EDTA, 3 mM MgCl2, with NADPH-generating system, over 120 minutes
  recovery at 120 min, 10 μM: ~89%
[5]
  dissolution in incubation medium: slightly better in the absence of MgCl2/EDTA
